Values of other authors in US20050234025A1, “Compositions comprising one or more policosanols and/or policosanoic acids combined with sterol and/or steroid based ascorbic acid derivatives, and uses thereof” (FORBES MEDI-TECH INC., priority 2004, published 2005).

Tested on: mice
Details: Ben-David et al.

Which “effect on cholesterol (anti-hypercholesterolemic effect)” value does the source give for C[C@]12CC[C@H](O)CC1=CC[C@@H]1[C@@H]2CC[C@]2(C)C(=O)CC[C@@H]12 [DHEA, dehydroepiandrostrone] here?
Its value is “anti-hypercholesterolemic effect”.
